Measurements published in patent publication US20150072888A1, “Biomarkers For Diagnosis Of Diabetes And Monitoring Of Anti-Diabetic Therapy” (Sumitomo Bakelite Co., Ltd., priority 2012, published 2015).

Assays:
db/db mice [1] = assay: Plasma N-glycan profile (GLYCANMAP, MALDI-TOF MS) of db/db mice treated with rosiglitazone, initial study (Table 1 summarises both rosiglitazone studies); format: in vivo, mouse; conditions: first rosiglitazone study, db/db mice vs vehicle
Description: A 10 μl aliquot of each plasma sample was spiked with internal standard (700 pmol) and analyzed for N-linked glycans using Ezose Sciences' GLYCANMAP methodology. The samples were denatured and then digested with trypsin, followed by heat-inactivation. The mixture was then treated with PNGase F. After enzymatic release of N-glycans, aliquots were subjected to solid-phase processing using BLOTGLYCO beads. Following capture on the beads, the sialic acid residues were methyl esterified. The glycans were simultaneously released from the beads and labeled, and then aliquots of the recovered materials were spotted onto a MALDI target plate. […]
Rosigilitazone is a member of the athiazolidinedione class of anti-diabetic drugs, and is marketed by Glaxo under the trade name AVANDIA. […] A baseline (Day 0) sample was not analyzed in the initial rosiglitazone study, but was included in a subsequent rosiglitazone confirmatory study. […]
Several criteria were used in the initial rosiglitazone study to select the most promising biomarkers. Statistical significance was evaluated based on the Mann-Whitney test or Student's t-test and changes considered significant if the resulting p-value was less than 0.05. […] After the confirmatory rosiglitazone study, one glycan (530010) that had been excluded in the initial study was re-evaluated. […]

db/db mice [2] = assay: Plasma N-glycan profile of db/db mice treated with insulin detemir; format: in vivo, mouse; conditions: for Direction of change of hybrid glycan 430010 / Direction of change of hybrid glycan 530010 / Direction of change of hybrid glycan 630010: days 7, 14, 21, significant as early as Day 7; for Direction of change of high mannose glycan 520000 (Man5GlcNAc2) / Direction of change of high mannose glycan 620000 (Man6GlcNAc2) / Direction of change of high mannose glycan 720000 (Man7GlcNAc2) / Direction of change of high mannose glycan 820000 (Man8GlcNAc2): significant at Day 7, 14 and 21
Description: A 10 μl aliquot of each plasma sample was spiked with internal standard (700 pmol) and analyzed for N-linked glycans using Ezose Sciences' GLYCANMAP methodology. The samples were denatured and then digested with trypsin, followed by heat-inactivation. The mixture was then treated with PNGase F. After enzymatic release of N-glycans, aliquots were subjected to solid-phase processing using BLOTGLYCO beads. Following capture on the beads, the sialic acid residues were methyl esterified. The glycans were simultaneously released from the beads and labeled, and then aliquots of the recovered materials were spotted onto a MALDI target plate. Steps from initial aliquoting to spotting on the MALDI plate were performed using the fully automated SWEETBLOT technology. MALDI-TOF MS analysis was performed on an ultraflex III mass spectrometer (Bruker Daltonics) in the positive-ion, reflector mode. Each sample from the BLOTGLYCO bead processing step was spotted in quadruplicate, and spectra were obtained in an automated manner using the AutoXecute feature in flexControl software (Bruker Daltonics). Proposed glycan structures were assigned based on molecular weight. These methods have been described previously by Nishimura, Furukawa and Miura (Nishimura et al., Angew Chem. Int. Ed. Engl., 44: 91-96 (2004); Furukawa et al., Anal. Chem., 80: 1094-1101 (2008); Miura et al., Chem.-A Eur. J, 13: 4797-4804 (2007)). Alternatively, standard fluorescent HPLC or capillary electrophoresis methods with 2-AA, 2-AB, or APTS labeling can be used to monitor the glycan levels and changes in glycan patterns.
A further study was undertaken to evaluate the performance of candidate biomarkers discovered using rosiglitazone in mice treated with a diabetes drug having a different mechanism of action. The candidate biomarkers that were identified in Example 1 were evaluated in db/db mice treated with insulin detemir and vehicle.
Plasma samples were analyzed from ten db/db mice at baseline (0 days) and from 20 db/db mice (ten vehicle and ten insulin detemir-treated) at 7, 14, and 21 days. Sample preparation and analysis followed the protocol described in Example 1.
Concentrations of individual glycans in insulin detemir- and vehicle-treated db/db mice were compared at each time-point using the Student's t-test. N-glycans which yielded p-values<0.05 in this analysis were considered significant. Time-dependence was also evaluated for each of the candidate biomarkers by comparing each time-point to baseline.

[3] = db/db mice plasma vs vehicle, listed as Insulin Detemir

Molecule | Time until highly significant difference (p<0.001) was achieved for HbA1c (db/db mice [1]) [days] | Changes in HbA1c compared with rosiglitazone (db/db mice [2]; db/db mice) | Magnitude of changes in high-mannose glycans compared with rosiglitazone (db/db mice [2]; db/db mice plasma) | Changes in Glycan 540020 (db/db mice [2]; db/db mice plasma vs vehicle) | Changes in O-acetylated N-glycans (db/db mice [2]; db/db mice plasma vs vehicle) | Changes in fucosylated N-glycans (db/db mice [2]; db/db mice plasma vs vehicle) | Direction of change of hybrid glycan 430010 (db/db mice [2]; db/db mice plasma vs vehicle) | Direction of change of hybrid glycan 530010 (db/db mice [2]; db/db mice plasma vs vehicle) | Direction of change of hybrid glycan 630010 (db/db mice [2]; db/db mice plasma vs vehicle) | Direction of change of hybrid glycan 430010 (db/db mice [2]; [3]) | Direction of change of hybrid glycan 530010 (db/db mice [2]; [3]) | Direction of change of hybrid glycan 630010 (db/db mice [2]; [3]) | Direction of change of high mannose glycan 520000 (Man5GlcNAc2) (db/db mice [2]; db/db mice plasma vs vehicle) | Direction of change of high mannose glycan 620000 (Man6GlcNAc2) (db/db mice [2]; db/db mice plasma vs vehicle) | Direction of change of high mannose glycan 720000 (Man7GlcNAc2) (db/db mice [2]; db/db mice plasma vs vehicle) | Direction of change of high mannose glycan 820000 (Man8GlcNAc2) (db/db mice [2]; db/db mice plasma vs vehicle) | Direction of change of high mannose glycan 520000 (Man5GlcNAc2) (db/db mice [2]; [3]) | Direction of change of high mannose glycan 620000 (Man6GlcNAc2) (db/db mice [2]; [3]) | Direction of change of high mannose glycan 720000 (Man7GlcNAc2) (db/db mice [2]; [3]) | Direction of change of high mannose glycan 820000 (Man8GlcNAc2) (db/db mice [2]; [3])
CN(CCOc1ccc(CC2SC(=O)NC2=O)cc1)c1ccccn1 (centres unmarked) [rosiglitazone] | 21 |  |  |  |  |  |  |  |  |  |  |  |  |  |  |  |  |  |  | 
insulin detemir |  | more subtle changes | lower in magnitude | no significant changes | no significant changes | no significant changes | significant decreases | significant decreases | significant decreases | Decreased | Decreased | Decreased | lower levels | lower levels | lower levels | lower levels | Decreased | Decreased | Decreased | Decreased
